In ChEMBL document CHEMBL1153238, “Spirodiketopiperazine-based CCR5 antagonists: Improvement of their pharmacokinetic profiles” (Bioorg Med Chem Lett, 2010):
Blank lines part the entries; values can stand above or below the compound they belong to.

Experiments:
[1] = test system: Human immunodeficiency virus 1; assay: Antiviral activity against HIV1 Ba-L(R5) infected in human PBMC by p24 antigen capture assay; settings: Human immunodeficiency virus 1, Ba-L(R5)
Rattus norvegicus [2] = assay: Bioavailability in rat at 30 mg/kg, po administered as single dose; type: ADME, organism-based; settings: in vivo
[3] = Solubility of the compound; type: physicochemical
Rattus norvegicus [4] = assay: AUC (0 to infinity) in rat at 30 mg/kg, iv; type: ADME, organism-based, Plasma; set-up: time infinity, dose 30 mg/kg, route intravenous; settings: in vivo
Liver microsomes = assay: Metabolic stability in rat liver microsomes assessed as compound remaining after 15 mins; type: ADME, Microsome; settings: 0.25 h
[5] = Cmax in rat at 30 mg/kg, po administered as single dose; type: ADME, organism-based; set-up: dose 30 mg/kg, route oral; settings: in vivo
Rattus norvegicus [6] = assay: AUC (0 to infinity) in rat at 30 mg/kg, po administered as single dose; type: ADME, organism-based, Plasma; set-up: time infinity, dose 30 mg/kg, route oral; settings: in vivo
Rattus norvegicus [7] = assay: Half life in rat at 30 mg/kg, iv; type: ADME, organism-based; set-up: dose 30 mg/kg, route intravenous; settings: in vivo
Rattus norvegicus [8] = assay: Half life in rat at 30 mg/kg, po administered as single dose; type: ADME, organism-based; set-up: dose 30 mg/kg, route oral; settings: in vivo
[9] = target: C-C chemokine receptor type 5 (Homo sapiens, UniProt P51681); assay: Antagonist activity at human CCR5 receptor overexpressed in CHO cells assessed as inhibition of MIP-1-alpha-induced calcium mobilization; type: functional, cell-based
Sequence of C-C chemokine receptor type 5 (P51681 whole entry): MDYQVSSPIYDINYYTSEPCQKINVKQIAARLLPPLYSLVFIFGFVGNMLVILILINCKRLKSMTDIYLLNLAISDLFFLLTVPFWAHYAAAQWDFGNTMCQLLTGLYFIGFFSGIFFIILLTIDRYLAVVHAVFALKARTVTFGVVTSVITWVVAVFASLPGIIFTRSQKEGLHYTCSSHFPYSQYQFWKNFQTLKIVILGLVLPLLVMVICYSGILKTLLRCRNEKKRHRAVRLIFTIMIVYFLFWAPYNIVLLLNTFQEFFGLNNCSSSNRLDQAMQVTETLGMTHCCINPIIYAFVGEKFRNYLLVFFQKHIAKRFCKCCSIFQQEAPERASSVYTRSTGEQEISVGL

Compound: Cc1c(O)cccc1C(=O)N[C@@H](CSc1ccccc1)[C@H](O)CN1C[C@H]2CCCC[C@H]2C[C@H]1C(=O)NC(C)(C)C
IC50 [1]: 12 nM

F (Rattus norvegicus [2]): 1.9% | solubility [3]: < 5 µM | AUC (Rattus norvegicus [4]): 400 ng·h/mL | Stability (Liver microsomes): 33% | Cmax [5]: 16.7 ng/mL | AUC (Rattus norvegicus [6]): 74.4 ng·h/mL | t1/2 (Rattus norvegicus [7]): 19.9 min | t1/2 (Rattus norvegicus [8]): 103 min
Compound: CCCCN1C(=O)C(CC2CCCCC2)NC(=O)C12CCN(Cc1ccc(Oc3ccccc3)cc1)CC2.Cl (racemic)

IC50 [9]: 180 nM
Compound: CCCCN1C(=O)C(CC(C)C)NC(=O)C12CCN(Cc1ccc3c(c1)OCCO3)CC2 (racemic)
